# Measured values from PubChem BioAssay (NCI).
# “And” between values parts separate entries of the source, which are not always exact repeats. Equal values may be shown once.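 Protocol summary: plate cells (96-well), add compound at 5 concentrations, incubate 48 h, interpolate endpoints linearly. Abbreviation: GI50, concentration required for 50% inhibition of growth. TGI marks complete inhibition of growth.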
# Tested on: M14 melanoma
# Test: inhibition of tumour cell growth, NCI panel, 48 h
SMILES,TGI [µM],GI50 [µM]
Nc1ccccc1S(=O)(=O)N(CC(=O)O)c1ccccc1,> 100,–
CCOC(=O)C(C)(C)Oc1ccc2c(-c3ccccc3)cc(=O)oc2c1,> 100,–
CNS(=O)(=O)NNS(=O)(=O)c1ccccc1,> 100,–
Cc1cc(NS(=O)(=O)c2ccc(Nc3c4ccccc4nc4c(C(=O)N5CCN(CCOS(C)(=O)=O)CC5)cccc34)cc2)no1,> 100,–
O=C(O)CCC(NC(=O)c1ccc(Nc2nc3ccccc3nc2-c2cccs2)cc1)C(=O)O (configuration not stated),> 100,–
NC1=NCCC1(c1ccccc1)c1ccccn1 (configuration not stated),> 100,–
CNC(=S)OCCC(C)CCCC(C)C (configuration not stated),35.2,–
COC1/C=C/OC2(C)Oc3c(C)c(O)c4c(O)c(c(/C=N/Nc5ccc([N+](=O)[O-])cc5[N+](=O)[O-])c(O)c4c3C2=O)NC(=O)C(C)=C/C=C/C(C)C(O)C(C)C(O)C(C)C(OC(C)=O)C1C (configuration not stated),5.86,1.61
COC(=O)/C(C#N)=C1\NC(=O)c2ccccc21,> 100,–
Fc1ccc(NC(=S)SCc2ccc3c(c2)OCO3)cc1F,39.1,–

# Tested on: NCI-H226 lung
# Test: inhibition of tumour cell growth, NCI panel, 48 h
SMILES,TGI [µM],GI50 [µM]
COc1cc2c(c3oc4c(O)cccc4c(=O)c13)CC(C(C)(O)CO)O2 (configuration not stated),> 100,–
Cc1c(C(=O)C/C(=N/NC(=O)c2ccccc2O)C(=O)Nc2ccccc2C(C)C)[n+](=O)c2ccccc2n1[O-],> 100,–
CCCCCCCCCCCC(=O)OCCOCCOCCOCCOCCOCc1ccccc1,> 100,–
O=C(CCc1nc(=S)[nH][nH]1)Nc1cc(Cl)c(Cl)cc1Cl,> 100,–
O=C(Nc1nc2ccc([N+](=O)[O-])cc2s1)C(=O)C(C1OC(=O)c2ccccc21)[N+](=O)[O-] (configuration not stated),> 100,–
O=C(CCc1nc(=S)[nH][nH]1)Nc1ccc(Cl)c(Cl)c1,> 100,–
Cc1ccc(Cl)c2c(N=Nc3ccccc3[N+](=O)[O-])c(O)[nH]c12,> 100,–
C=CCOc1ccc2c(C)cc(=O)oc2c1C,> 100,–
COC(=O)c1ccccc1NC(=O)C(=O)Cc1nc2c3c(ccc2[nH]c1=O)C(=O)c1ccccc1C3=O,16.7,–
Cc1ccc(S(=O)(=O)OC[C@@H]2CO2)cc1,> 100,–
COc1cc2cc(OC)c3cc4c(cc3c2c(OC)c1OC)OCO4,> 100,–
O=C(CC(=O)c1cccc2ccccc12)C(=O)Nc1ccc(Cl)cc1,> 100,–
C=CCO[C@H]1CO[C@H]2[C@@H]1OC[C@@H]2Oc1ccc(Nc2ccnc(Nc3ccc(O[C@H]4CO[C@H]5[C@@H]4OC[C@@H]5OCC=C)c(Cl)c3)n2)cc1Cl,72.3,7.46
CC1(C(=O)O)CCC[C@@]2(C)C1CC[C@@]1(C)c3cocc3CCC21 (some centres not stated),> 100,–
CCN(CC)CCSc1c2ccccc2nc2cc(NCC(=O)Nc3ccccc3-c3ccccc3NC(=O)CNc3ccc4c(SCCN(CC)CC)c5ccccc5nc4c3)ccc12,> 100,–
O=C(CCNC12CC3CC(CC(C3)C1)C2)c1ccccc1,> 100,–
Cc1cc(N(CCC#N)CCC#N)ccc1N=Nc1ccc(S(N)(=O)=O)cc1,> 100,–

SMILES,TGI [µM],GI50 [µM]
CC(C)=CCC\C(C)=C/C=C/C(C)=C\C=C\C(C)=C/C=C/C=C(C)\C=C\C=C(C)/C=C/C=C(/C)CCC=C(C)C,> 100,–
CC(=O)[CH-]C(=O)c1ccccc1.CC(=O)[CH-]C(=O)c1ccccc1.CN(C)c1ccc([O-])cc1.CN(C)c1ccc([O-])cc1.Cl.[Ti+4],30.9,18.2
CC1(C)C(=O)/C=C\C(=O)C(C)(C)C2=CC=C(O2)C(C)(C)C(=O)/C=C\C(=O)C(C)(C)C2=CC=C1O2,> 100,–
NC(=O)NO.O.O.O.O.O.O.O.O.O.O.O.[Ge].[Ge].[Ge].[Ge].[Ge].[O]=[Ge].[O]=[Ge].[O]=[Ge].[O]=[Ge].[O]=[Ge][OH],> 100,–
CN(C)C(=S)N=C(Nc1ccccc1)Nc1ccccc1,> 100,–
COC(=O)CC[N+]1=CCC(c2ccccc2)(c2ccccc2)O1,> 100,–
OCC1=CC(NC2CC(CO)C(O)C(O)C2O)C(O)C(O)C1O (configuration not stated),> 100,–
OCCN(CCO)c1ncnc2c1ncn2Cc1ccc(CCl)cc1,58,23.4
CCOC(=O)C(C)(C)Oc1ccc2c(-c3ccccc3)cc(=O)oc2c1,87.4,–
CNS(=O)(=O)NNS(=O)(=O)c1ccccc1,> 100,–
Cc1cc(NS(=O)(=O)c2ccc(Nc3c4ccccc4nc4c(C(=O)N5CCN(CCOS(C)(=O)=O)CC5)cccc34)cc2)no1,> 100,–
O=C(O)CCC(NC(=O)c1ccc(Nc2nc3ccccc3nc2-c2cccs2)cc1)C(=O)O (configuration not stated),> 100,–
NC1=NCCC1(c1ccccc1)c1ccccn1 (configuration not stated),> 100,–
COC1/C=C/OC2(C)Oc3c(C)c(O)c4c(O)c(c(/C=N/Nc5ccc([N+](=O)[O-])cc5[N+](=O)[O-])c(O)c4c3C2=O)NC(=O)C(C)=C/C=C/C(C)C(O)C(C)C(O)C(C)C(OC(C)=O)C1C (configuration not stated),3.89,1.35
COC(=O)/C(C#N)=C1\NC(=O)c2ccccc21,> 100,–
Fc1ccc(NC(=S)SCc2ccc3c(c2)OCO3)cc1F,> 100,–

# Tested on: SW-620 colon
# Test: inhibition of tumour cell growth, NCI panel, 48 h
SMILES,TGI,GI50 [µM]
COc1cc2c(c3oc4c(O)cccc4c(=O)c13)CC(C(C)(O)CO)O2 (configuration not stated),> 100 µM,–
Cc1c(C(=O)C/C(=N/NC(=O)c2ccccc2O)C(=O)Nc2ccccc2C(C)C)[n+](=O)c2ccccc2n1[O-],> 100 µM,–
CCCCCCCCCCCC(=O)OCCOCCOCCOCCOCCOCc1ccccc1,> 100 µM,–
CCCC1C(=O)CCc2c(OC)ccc(OC)c21 (configuration not stated),> 100 µM,–
O=C(CCc1nc(=S)[nH][nH]1)Nc1cc(Cl)c(Cl)cc1Cl,> 100 µM,–
O=C(Nc1nc2ccc([N+](=O)[O-])cc2s1)C(=O)C(C1OC(=O)c2ccccc21)[N+](=O)[O-] (configuration not stated),> 100 µM,–
O=C(CCc1nc(=S)[nH][nH]1)Nc1ccc(Cl)c(Cl)c1,> 100 µM,–
COC(=O)C1(C(C)C)CCc2c(OC)ccc(OC)c2C1=O (configuration not stated),> 100 µM,–
Cc1ccc(Cl)c2c(N=Nc3ccccc3[N+](=O)[O-])c(O)[nH]c12,> 100 µM,–
C=CCOc1ccc2c(C)cc(=O)oc2c1C,> 100 µM,–
COC(=O)c1ccccc1NC(=O)C(=O)Cc1nc2c3c(ccc2[nH]c1=O)C(=O)c1ccccc1C3=O,55.7 µM,–
Cc1ccc(S(=O)(=O)OC[C@@H]2CO2)cc1,> 100 µM,–
COc1cc2cc(OC)c3cc4c(cc3c2c(OC)c1OC)OCO4,43.8 µM,–
O=C(CC(=O)c1cccc2ccccc12)C(=O)Nc1ccc(Cl)cc1,> 100 µM,–
C=CCO[C@H]1CO[C@H]2[C@@H]1OC[C@@H]2Oc1ccc(Nc2ccnc(Nc3ccc(O[C@H]4CO[C@H]5[C@@H]4OC[C@@H]5OCC=C)c(Cl)c3)n2)cc1Cl,3.29 µM,1.77
CCCCCCCCCCCCCC(=O)OC(/C=C/C(C)C)C(O)C(O)C(OC)C(=O)NC1CCCCN(C)C1=O (configuration not stated),6.06 µM and > 49 µM,> 49
CC1(C(=O)O)CCC[C@@]2(C)C1CC[C@@]1(C)c3cocc3CCC21 (some centres not stated),> 100 µM,–
CCn1c(C)nn2c(=O)c3ccccc3nc2c1=O,> 100 µM,–
CCOC(=O)CCC1(C(=O)OCC)CCCCC1=O (configuration not stated),> 100 µM,–
CCN(CC)CCSc1c2ccccc2nc2cc(NCC(=O)Nc3ccccc3-c3ccccc3NC(=O)CNc3ccc4c(SCCN(CC)CC)c5ccccc5nc4c3)ccc12,> 100 µM,–
Cc1nc2c(ccc3ncccc32)[nH]1,> 100 µM,–

SMILES,TGI,GI50 [µM]
O=C(CCNC12CC3CC(CC(C3)C1)C2)c1ccccc1,35.6 µM,–
CCN1CCN(Cc2ccc(NC(=O)c3cccc(C#Cc4cccc5[nH]nc(N)c45)c3)cc2C(F)(F)F)CC1,1.59 µM,0.343
Cc1cc(N(CCC#N)CCC#N)ccc1N=Nc1ccc(S(N)(=O)=O)cc1,> 100 µM,–
CC(C)=CCC\C(C)=C/C=C/C(C)=C\C=C\C(C)=C/C=C/C=C(C)\C=C\C=C(C)/C=C/C=C(/C)CCC=C(C)C,> 100 µM,–
CC(=O)[CH-]C(=O)c1ccccc1.CC(=O)[CH-]C(=O)c1ccccc1.CN(C)c1ccc([O-])cc1.CN(C)c1ccc([O-])cc1.Cl.[Ti+4],> 31.6 µM,18.5
CC1(C)C(=O)/C=C\C(=O)C(C)(C)C2=CC=C(O2)C(C)(C)C(=O)/C=C\C(=O)C(C)(C)C2=CC=C1O2,> 100 µM,–
NC(=O)NO.O.O.O.O.O.O.O.O.O.O.O.[Ge].[Ge].[Ge].[Ge].[Ge].[O]=[Ge].[O]=[Ge].[O]=[Ge].[O]=[Ge].[O]=[Ge][OH],> 100 µM,–
CN(C)C(=S)N=C(Nc1ccccc1)Nc1ccccc1,> 100 µM,–
COC(=O)CC[N+]1=CCC(c2ccccc2)(c2ccccc2)O1,> 100 µM,–
CCC[CH2][Sn]([CH2]CCC)([S]c1cccc2cccnc12)[S]c1cccc2cccnc12,0.379 µM,0.132
OCC1=CC(NC2CC(CO)C(O)C(O)C2O)C(O)C(O)C1O (configuration not stated),> 100 µM,–
OCCN(CCO)c1ncnc2c1ncn2Cc1ccc(CCl)cc1,27.3 µM,10.8
Nc1ccccc1S(=O)(=O)N(CC(=O)O)c1ccccc1,> 100 µM,–
CCOC(=O)C(C)(C)Oc1ccc2c(-c3ccccc3)cc(=O)oc2c1,> 100 µM,–
CNS(=O)(=O)NNS(=O)(=O)c1ccccc1,> 100 µM,–
O=C(O)CCC(NC(=O)c1ccc(Nc2nc3ccccc3nc2-c2cccs2)cc1)C(=O)O (configuration not stated),> 100 µM,–
NC1=NCCC1(c1ccccc1)c1ccccn1 (configuration not stated),> 100 µM,–
CNC(=S)OCCC(C)CCCC(C)C (configuration not stated),30.7 µM,–
COC1/C=C/OC2(C)Oc3c(C)c(O)c4c(O)c(c(/C=N/Nc5ccc([N+](=O)[O-])cc5[N+](=O)[O-])c(O)c4c3C2=O)NC(=O)C(C)=C/C=C/C(C)C(O)C(C)C(O)C(C)C(OC(C)=O)C1C (configuration not stated),2.96 µM,1.19
COC(=O)/C(C#N)=C1\NC(=O)c2ccccc21,> 100 µM,–
Fc1ccc(NC(=S)SCc2ccc3c(c2)OCO3)cc1F,> 100 µM,–
